Source: patent publication US11717509B2, “Blend containing carbamate compound for prevention, mitigation, or treatment of schizophrenia” (SK BIOPHARMACEUTICALS CO., LTD., priority 2017, dated 2023)

Test system: animal model in which schizophrenia-like symptoms were induced by treatment with dizocilpine (MK-801)
Experiment: Social interaction animal behavior test in rats with schizophrenia-like symptoms induced by dizocilpine (MK-801)
Assay type: in vivo, rat (Wistar, male)
Conditions: for Social interaction (Mean ± SEM) = total time of active social interactions of sniffing, grooming, licking, mounting and crawling: male Wistar rats in pairs, 5 min observation, dizocilpine 0.1 mg/kg sc 4 h before, aripiprazole 0.003 mg/kg po and/or test compound 3 mg/kg po 1 h before, 20 pairs; for total time average of active social interactions: mean±SEM, aripiprazole 0.003 mg/kg and/or test compound 3 mg/kg po; for total time average of active social interactions / Recovery rate compared to negative control: dizocilpine 0.1 mg/kg sc; for Statistical significance compared to negative control (P < 0.05?) / Statistical significance compared to positive control (P < 0.05?): one-way ANOVA, Dunnett's test; for Statistical significance compared to negative control (P < 0.05?): negative control = dizocilpine only; for Statistical significance compared to negative control (P < 0.05?) / Statistical significance compared to positive control (P < 0.05?) / Recovery rate compared to negative control: aripiprazole 0.003 mg/kg po and/or test compound 3 mg/kg po; for Statistical significance compared to positive control (P < 0.05?): positive control = vehicle group; for Recovery rate compared to negative control: versus dizocilpine-only negative control and vehicle positive control
Text: The antipsychotic activity of the carbamate compounds of Formula 1 and aripiprazole against schizophrenia can be tested through social interaction animal behavior tests used in drug development for the negative symptoms of schizophrenia (Neill J C, Grayson B, Kiss B, Gyertyán I, Ferguson P, Adham N, Effects of cariprazine, a novel antipsychotic, on cognitive deficit and negative symptoms in a rodent model of schizophrenia symptomatology, Eur Neuropsychopharmacol. 2016 January; 26(1):3-14). […] Dizocilpine (MK-801) is an N-methyl-D-aspartate (NMDA) receptor inhibitor. In the dizocilpine-induced (MK-801-induced) social interaction animal behavior test, schizophrenia-like symptoms can be induced by administration of dizocilpine (Rung J P, Carlsson A, Ryden Markinhuhta K, Carlsson M L, (+)-MK-801 induced social withdrawal in rats; a model for negative symptoms of schizophrenia. Prog Neuropsychopharmacol Biol Psychiatry. 2005 June; 29(5):827-32). Aripiprazole, known as an atypical antipsychotic drug, inhibits schizophrenia-like symptoms in proportion to the dose of dizocilpine (Deiana S, Watanabe A, Yamasaki Y, Amada N, Kikuchi T, Stott C, Riedel G, MK-801-induced deficits in social recognition in rats: reversal by aripiprazole, but not olanzapine, risperidone, or cannabidiol. Behav Pharmacol. 2015 December; 26 (8 Spec No): 748-65).
Male rats (Wistar, 4 weeks old, Orient Bio Co., Ltd.) were purchased, divided into 2 groups in an animal breeding room and acclimatized for more than 1 week on separate shelves. The experimental animals were housed and maintained in accordance with the Laboratory Animal Care Standards of the Institutional Animal Care and Use Committee (IACUC) under conditions of light-and-darkness cycle of 12 hours, a temperature of 22 to 25° C., a relative humidity of 40-60% and free access to food and water.
Thus, an animal model is used in which schizophrenia-like symptoms can be induced by treatment of dizocilpine, an N-methyl-D-aspartate (NMDA) receptor inhibitor.
Dizocilpine (purchased from Sigma) was newly prepared by dissolving it in physiological saline used as a vehicle, and 4 hours before the experiment, a 0.1 mg/kg dose was administered subcutaneously in a volume of 1 ml per 1 kg of body weight of the rat.
Aripiprazole and the test compound were newly prepared by dissolving them in 30% polyethylene glycol 400 (Sigma) used as a vehicle. One hour before the experiment, a 0.003 mg/kg dose of aripiprazole and a 3 mg/kg dose of the test compound were administered orally in a volume of 1 ml per 1 kg of body weight of the rat.
The male rats were placed in the same observation box in pairs, allowing 1:1 interaction, and then the total time of sniffing, grooming, licking, mounting and crawling under or over the other rat which can be considered as active social interactions was measured for 5 minutes, and social interaction was evaluated based on that.
All data are expressed as mean±SEM. Statistical analysis of the total time of active social interactions between groups was performed using the GraphPad Prism ver. 5.04 program, and analyzed by one-way ANOVA (one-way analysis of variance) and Dunnett's multiple comparison test.
The recovery rate was calculated as follows.

Structure (SMILES)	Social interaction (Mean ± SEM) = total time of active social interactions of sniffing, grooming, licking, mounting and crawling	total time average of active social interactions	Statistical significance compared to negative control (P < 0.05?)	Statistical significance compared to negative control (P < 0.05?) (listed as aripiprazole)	Statistical significance compared to positive control (P < 0.05?)	Statistical significance compared to positive control (P < 0.05?) (listed as aripiprazole)	Recovery rate compared to negative control	Recovery rate compared to negative control (listed as aripiprazole)	Statistical significance compared to negative control (P < 0.05?) (listed as test compound)	Statistical significance compared to positive control (P < 0.05?) (listed as test compound)	Recovery rate compared to negative control (listed as test compound)
O=C1CCc2ccc(OCCCCN3CCN(c4cccc(Cl)c4Cl)CC3)cc2N1 [Aripiprazole, 7-{4-[4-(2,3-dichlorophenyl)piperazin-1-yl]butoxy}-3,4-dihydroquinolin-2(1H)-one]	57.52 ± 3.04 s	57.52 ± 3.04 s	Not significant	no statistically significant difference	Significant	statistically significant difference	23.2%	23.2%			
C[C@]12N[C@H](Cc3ccccc31)c1ccccc12 [Dizocilpine]	53.86 ± 2.90 s	53.86 ± 2.90 s			Significant		0.0%				
NC(=O)O[C@@H](Cn1ncnn1)c1ccccc1Cl [Test compound, Carbamic acid (R)-1-(2-chlorophenyl)-2-tetrazol-2-yl-ethyl ester]	56.78 ± 2.19 s	56.78 ± 2.19 s	Not significant		Significant		18.5%		no statistically significant difference	statistically significant difference	18.5%
